This note sets out measurements from ChEMBL document CHEMBL1201862, “PubChem BioAssay data set” (2004).

Among the test systems are CAKI-1; COLO 205; HL-60; LOX IMVI; NCI-H226; NCI-H460; NCI-H522; OVCAR-8; RPMI-8226; SF-295; SK-MEL-28; SK-OV-3; SN12C; SNB-75; SW-620; UACC-257; UO-31; IGROV-1.
Test in all cases: inhibition of tumour cell growth, NCI panel, 48 h

Molecules are shown by their SMILES.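 All cell lines were grown in 96-well plates and treated with compound for 48 hours. At the GI50, growth is halved.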 Calls of active or inactive are those of the source. No stated cut-off is given here; in the data, active = GI50 up to about 1.1 µM and inactive = higher. A value given as a limit tells only on which side of the number the result lay.

As to `N#C/C(=C\c1c(O)cc(O)cc1O)C(N)=O`, the GI50 with CAKI-1, in the assay on COLO 205, in the assay with HL-60, in the assay on LOX IMVI, with NCI-H226 and in the assay on NCI-H460 was > 100 µM (inactive) each time. Also, the GI50 with NCI-H522, in the assay on OVCAR-8, in the assay on RPMI-8226, in the assay on SF-295, in the assay on SK-MEL-28 and in the assay on SK-OV-3 was > 100 µM (inactive) in each case. Moreover, the GI50 was > 100 µM (inactive) in the assay with SN12C; 36.2 µM (inactive) in the assay on SNB-75; > 100 µM (inactive) with SW-620; > 100 µM (inactive) with UACC-257; > 100 µM (inactive) in the assay on UO-31.
With `Cc1c(C(=O)CC(=O)C(=O)Nc2ccc(Cl)c(Cl)c2)[n+]([O-])c2ccccc2[n+]1[O-]`, the GI50 in the assay on CAKI-1 is 51.9 µM (inactive); with COLO 205, 19.4 µM (inactive); in the assay with HL-60, 17.8 µM (inactive); in the assay with IGROV-1, 18.7 µM (inactive); in the assay on LOX IMVI it was 21.1 µM (inactive); in the assay with NCI-H226, > 100 µM (inactive). The GI50 in the assay with NCI-H460 was 24.7 µM (inactive); with NCI-H522 it was 18.9 µM (inactive); in the assay on OVCAR-8 it was 17.2 µM (inactive); with RPMI-8226, 20.8 µM (inactive); in the assay with SF-295, 41.7 µM (inactive); in the assay with SK-MEL-28, 37.9 µM (inactive). The GI50 with SK-OV-3 was 41.6 µM (inactive); in the assay on SN12C, 23.8 µM (inactive); in the assay with SNB-75, 18.9 µM (inactive); in the assay with SW-620, 25.1 µM (inactive); in the assay with UACC-257, 17.5 µM (inactive); with UO-31, 55.1 µM (inactive).
`COCNC(=NC#N)NCOC`: the GI50 in the assay on CAKI-1 was > 100 µM (inactive); in the assay with COLO 205, > 53.5 µM (inactive); in the assay on HL-60, > 68.9 µM (inactive); with IGROV-1 it was > 100 µM (inactive); with LOX IMVI, > 41.7 µM (inactive); in the assay on NCI-H226, > 100 µM (inactive). The GI50 in the assay with NCI-H460 was > 100 µM (inactive); with NCI-H522 it was > 100 µM (inactive); with OVCAR-8, > 100 µM (inactive); in the assay with RPMI-8226, > 49.3 µM (inactive); in the assay on SF-295, > 100 µM (inactive); with SK-MEL-28 it was > 100 µM (inactive). In addition, the GI50 was > 100 µM (inactive) in the assay on SK-OV-3; > 100 µM (inactive) with SN12C; > 100 µM (inactive) in the assay with SNB-75; > 42.9 µM (inactive) in the assay on SW-620; > 100 µM (inactive) in the assay on UACC-257; > 100 µM (inactive) in the assay on UO-31.
Take `Cc1cc(Cl)ccc1NC(=O)/C(=N\NC(C)(C)C)C(C#N)c1nc(-c2ccc([N+](=O)[O-])cc2)cs1` (stereo not given): the GI50 with CAKI-1, with HL-60, in the assay on IGROV-1, in the assay with LOX IMVI, with NCI-H226 and with NCI-H460 was > 100 µM (inactive) in each case. In addition, the GI50 in the assay with NCI-H522, in the assay with OVCAR-8, with RPMI-8226, with SF-295, in the assay with SK-MEL-28 and in the assay with SK-OV-3 was > 100 µM (inactive) throughout. Also, the GI50 with SN12C, in the assay with SNB-75, in the assay with SW-620, in the assay on UACC-257 and in the assay on UO-31 was > 100 µM (inactive) in each case.
As to `Cc1cc(Cl)cc2c1NC(=O)C2(O)CC(=O)c1ccc(Br)cc1` (stereo not given), the GI50 with CAKI-1 is > 100 µM (inactive); with COLO 205 it was > 100 µM (inactive); in the assay on HL-60 it was 16.9 µM (inactive); in the assay with IGROV-1, 66.8 µM (inactive); in the assay on LOX IMVI, 38.5 µM (inactive); in the assay with NCI-H226, > 100 µM (inactive). Besides, the GI50 in the assay with NCI-H460 is 55.7 µM (inactive); with NCI-H522, 45.7 µM (inactive); in the assay on OVCAR-8 it was 38.2 µM (inactive); with RPMI-8226 it was 35 µM (inactive); in the assay on SF-295, 46.9 µM (inactive); with SK-MEL-28, 35.6 µM (inactive). In addition, the GI50 in the assay on SK-OV-3 is > 100 µM (inactive); in the assay with SN12C it was > 77.1 µM (inactive); in the assay on SNB-75 it was 45.5 µM (inactive); with SW-620, > 90.6 µM (inactive); with UACC-257 it was 32.6 µM (inactive); with UO-31 it was > 100 µM (inactive).
As to `O=c1c(-c2cccc3ccccc23)c(-c2cccc3ccccc23)c1=O`, the GI50 with CAKI-1 is 2.91 µM (inactive); with COLO 205 it was 0.363 µM (active); in the assay with HL-60 it was 0.721 µM (active); in the assay with IGROV-1, 2.6 µM (inactive); in the assay with LOX IMVI it was 1.77 µM (inactive); in the assay with NCI-H226 it was 2.32 µM (inactive). Also, the GI50 was 0.586 µM (active) in the assay with NCI-H460; 0.489 µM (active) with NCI-H522; 2.81 µM (inactive) with OVCAR-8; 0.736 µM (active) in the assay on RPMI-8226; 0.446 µM (active) with SF-295; 10.6 µM (inactive) in the assay on SK-MEL-28. The GI50 was 10.8 µM (inactive) in the assay on SK-OV-3; 5.06 µM (inactive) in the assay on SN12C; 0.2 µM (active) with SNB-75; 0.33 µM (active) in the assay with SW-620; 4.25 µM (inactive) with UACC-257; 11.8 µM (inactive) in the assay on UO-31.
On to `CCOC(=O)c1c[nH]c2c(ccc3nn(C)nc32)c1=O`, for which the GI50 in the assay on CAKI-1 is > 100 µM (inactive); in the assay with COLO 205, 38.3 µM (inactive); with HL-60 it was 57.3 µM (inactive); in the assay with IGROV-1, > 100 µM (inactive); with LOX IMVI, 10 µM (inactive); in the assay with NCI-H226, > 100 µM (inactive). Besides, the GI50 was 96.4 µM (inactive) in the assay with NCI-H460; > 100 µM (inactive) in the assay on NCI-H522; > 100 µM (inactive) in the assay on OVCAR-8; 25.6 µM (inactive) in the assay with RPMI-8226; > 100 µM (inactive) with SF-295; > 100 µM (inactive) in the assay with SK-MEL-28. Besides, the GI50 in the assay on SK-OV-3 was > 100 µM (inactive); in the assay with SN12C it was > 100 µM (inactive); in the assay on SNB-75 it was > 100 µM (inactive); with SW-620, 20.1 µM (inactive); in the assay on UACC-257, > 100 µM (inactive); in the assay on UO-31 it was > 100 µM (inactive).
In the case of `O=C1OC(=O)C([Se]c2ccccc2)=C1[Se]c1ccccc1`, the GI50 in the assay on CAKI-1, in the assay on COLO 205, with HL-60, in the assay on IGROV-1, in the assay on LOX IMVI and in the assay with NCI-H226 was > 100 µM (inactive) throughout. Further, the GI50 in the assay on NCI-H460, with NCI-H522, with OVCAR-8, with RPMI-8226, in the assay on SF-295 and in the assay on SK-MEL-28 was > 100 µM (inactive) in each case. In addition, the GI50 in the assay with SK-OV-3, with SN12C, in the assay with SNB-75, in the assay with SW-620 and with UACC-257 was > 100 µM (inactive) in each case.
As to `Cn1ccnc1CCc1c(Cl)cccc1Cl`, the GI50 in the assay on CAKI-1, in the assay on COLO 205, in the assay on HL-60, with IGROV-1, in the assay on LOX IMVI and in the assay on NCI-H226 was > 100 µM (inactive) in each case. In addition, the GI50 with NCI-H460, in the assay with NCI-H522, in the assay with OVCAR-8, with RPMI-8226, with SF-295 and in the assay on SK-MEL-28 was > 100 µM (inactive) throughout. The GI50 is > 100 µM (inactive) in the assay on SK-OV-3; > 100 µM (inactive) in the assay on SN12C; > 100 µM (inactive) in the assay with SNB-75; > 100 µM (inactive) in the assay on SW-620; > 100 µM (inactive) with UACC-257; 71.3 µM (inactive) in the assay with UO-31.
For `CC1=C(C(=O)Nc2cc(=O)n(C)c(=O)n2C)C(c2cccc([N+](=O)[O-])c2)C(C(=O)Nc2cc(=O)n(C)c(=O)n2C)=C(C)N1`, the GI50 in the assay on CAKI-1, in the assay with COLO 205, in the assay with HL-60, with IGROV-1, in the assay with LOX IMVI and in the assay with NCI-H226 was > 100 µM (inactive) throughout. Further, the GI50 was 62.7 µM (inactive) in the assay on NCI-H460; 44.5 µM (inactive) with NCI-H522; > 100 µM (inactive) in the assay on OVCAR-8; 62.5 µM (inactive) with RPMI-8226; > 100 µM (inactive) in the assay with SF-295; > 100 µM (inactive) in the assay with SK-MEL-28. Moreover, the GI50 was > 100 µM (inactive) in the assay with SK-OV-3; > 100 µM (inactive) in the assay on SN12C; 17.5 µM (inactive) in the assay on SNB-75; > 100 µM (inactive) in the assay with SW-620; > 100 µM (inactive) in the assay with UACC-257; 56.1 µM (inactive) in the assay with UO-31.
On to `COc1ccccc1/C=C/C(=O)c1sc(-c2cccnc2)nc1C`, for which the GI50 in the assay on CAKI-1, in the assay on COLO 205, in the assay on HL-60, in the assay with IGROV-1, with LOX IMVI and with NCI-H226 was > 100 µM (inactive) throughout. In addition, the GI50 in the assay with NCI-H460 was > 100 µM (inactive); in the assay on NCI-H522, > 100 µM (inactive); in the assay on OVCAR-8, > 100 µM (inactive); in the assay on RPMI-8226, 26.3 µM (inactive); with SF-295 it was 46.5 µM (inactive); in the assay on SK-MEL-28, > 100 µM (inactive). Moreover, the GI50 in the assay with SK-OV-3 was > 100 µM (inactive); with SN12C, > 100 µM (inactive); with SNB-75 it was 22.8 µM (inactive); in the assay on SW-620, > 100 µM (inactive); with UACC-257, > 100 µM (inactive); in the assay on UO-31, > 100 µM (inactive).
